The results in this text go back to publication PMC7978357, “Indole-3-acetic acid is a physiological inhibitor of TORC1 in yeast” (PLoS Genetics, 2021).

For data set [1], the target named is T1, TORC1 (Tor1 kinase subunit) (Saccharomyces cerevisiae, UniProt P35169).
T1 construct: TORC1 complex purified from yeast via Tco89-TEV-TAP (quantified with respect to the Tor1 subunit); with Kog1, Lst8, Tco89 (TORC1 subunits)
Put plainly: in vitro radioactive [γ-32P]-ATP kinase assay with purified TORC1, Lst4 loop substrate; enzyme kinetics. The data set is classed as biochemical.

Data set [2] concerns Nc1ncnc2c1ncn2[C@@H]1O[C@H](COP(=O)(O)OP(=O)(O)OP(=O)(O)O)[C@@H](O)[C@H]1O. Put plainly: purified protein. The settings on record: Mg2+.

T1 sequence (P35169 whole entry): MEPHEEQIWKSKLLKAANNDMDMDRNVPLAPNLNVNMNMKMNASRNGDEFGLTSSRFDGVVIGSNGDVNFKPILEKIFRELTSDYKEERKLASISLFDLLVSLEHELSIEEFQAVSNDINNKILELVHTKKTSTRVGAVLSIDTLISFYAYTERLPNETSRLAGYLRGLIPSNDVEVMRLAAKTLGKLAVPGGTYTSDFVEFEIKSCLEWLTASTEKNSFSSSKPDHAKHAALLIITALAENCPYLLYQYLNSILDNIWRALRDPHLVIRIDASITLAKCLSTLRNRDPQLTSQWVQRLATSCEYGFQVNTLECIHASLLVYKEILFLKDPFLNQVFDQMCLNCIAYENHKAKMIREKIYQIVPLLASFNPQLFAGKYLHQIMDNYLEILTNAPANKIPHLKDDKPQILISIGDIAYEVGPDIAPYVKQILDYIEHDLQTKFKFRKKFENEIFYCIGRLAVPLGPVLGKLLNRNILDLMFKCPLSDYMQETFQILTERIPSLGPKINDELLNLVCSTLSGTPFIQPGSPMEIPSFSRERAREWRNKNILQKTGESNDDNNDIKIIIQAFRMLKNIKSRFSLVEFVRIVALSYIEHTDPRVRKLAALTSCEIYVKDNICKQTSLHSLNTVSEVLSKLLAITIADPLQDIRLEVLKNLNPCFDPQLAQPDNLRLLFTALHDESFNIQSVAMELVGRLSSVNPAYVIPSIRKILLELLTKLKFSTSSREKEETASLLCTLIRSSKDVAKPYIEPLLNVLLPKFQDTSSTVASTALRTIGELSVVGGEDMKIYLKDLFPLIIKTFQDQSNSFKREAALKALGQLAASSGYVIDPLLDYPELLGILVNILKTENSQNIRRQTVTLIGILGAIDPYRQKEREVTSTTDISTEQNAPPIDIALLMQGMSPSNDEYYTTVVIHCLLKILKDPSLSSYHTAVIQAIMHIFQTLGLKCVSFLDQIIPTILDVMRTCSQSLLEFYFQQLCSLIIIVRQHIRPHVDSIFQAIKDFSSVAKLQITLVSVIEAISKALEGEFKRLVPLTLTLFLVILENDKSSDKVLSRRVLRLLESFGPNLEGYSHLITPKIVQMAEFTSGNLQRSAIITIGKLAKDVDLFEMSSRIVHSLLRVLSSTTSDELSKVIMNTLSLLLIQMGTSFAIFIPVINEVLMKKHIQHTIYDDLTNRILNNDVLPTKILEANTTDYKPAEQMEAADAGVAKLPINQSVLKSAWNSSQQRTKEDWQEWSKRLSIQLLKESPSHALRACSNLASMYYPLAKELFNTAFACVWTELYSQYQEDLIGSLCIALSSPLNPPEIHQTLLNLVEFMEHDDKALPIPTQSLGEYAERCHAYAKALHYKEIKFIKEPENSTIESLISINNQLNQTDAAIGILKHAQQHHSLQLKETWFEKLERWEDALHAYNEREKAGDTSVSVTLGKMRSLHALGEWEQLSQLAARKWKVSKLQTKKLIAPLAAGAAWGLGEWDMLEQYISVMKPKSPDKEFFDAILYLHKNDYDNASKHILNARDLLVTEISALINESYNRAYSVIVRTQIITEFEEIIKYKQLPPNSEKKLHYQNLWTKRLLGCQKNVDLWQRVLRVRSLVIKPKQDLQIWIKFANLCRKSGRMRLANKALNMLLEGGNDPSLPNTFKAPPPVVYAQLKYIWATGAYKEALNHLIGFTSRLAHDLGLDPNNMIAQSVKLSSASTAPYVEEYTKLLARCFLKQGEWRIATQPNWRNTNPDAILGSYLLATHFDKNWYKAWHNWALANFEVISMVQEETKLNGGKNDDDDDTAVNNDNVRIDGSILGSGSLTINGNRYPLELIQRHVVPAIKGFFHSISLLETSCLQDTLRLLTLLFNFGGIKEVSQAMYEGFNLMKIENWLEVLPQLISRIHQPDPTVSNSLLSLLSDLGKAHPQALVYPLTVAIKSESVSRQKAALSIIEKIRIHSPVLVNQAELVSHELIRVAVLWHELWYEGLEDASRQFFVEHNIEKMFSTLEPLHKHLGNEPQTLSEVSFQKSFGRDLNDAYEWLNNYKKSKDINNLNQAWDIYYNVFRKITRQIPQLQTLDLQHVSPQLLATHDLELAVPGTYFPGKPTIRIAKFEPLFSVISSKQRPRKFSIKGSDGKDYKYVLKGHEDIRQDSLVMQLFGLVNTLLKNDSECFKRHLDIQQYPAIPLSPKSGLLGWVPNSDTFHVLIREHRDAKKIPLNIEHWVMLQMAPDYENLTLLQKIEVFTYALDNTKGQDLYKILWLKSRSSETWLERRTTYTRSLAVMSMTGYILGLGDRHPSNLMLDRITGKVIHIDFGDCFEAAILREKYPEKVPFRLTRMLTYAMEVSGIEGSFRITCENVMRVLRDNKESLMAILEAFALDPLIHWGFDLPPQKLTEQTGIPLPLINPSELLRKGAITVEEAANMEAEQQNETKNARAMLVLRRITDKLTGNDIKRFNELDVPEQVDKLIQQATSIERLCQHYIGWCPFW
T1 sequence (P38873 whole entry partner): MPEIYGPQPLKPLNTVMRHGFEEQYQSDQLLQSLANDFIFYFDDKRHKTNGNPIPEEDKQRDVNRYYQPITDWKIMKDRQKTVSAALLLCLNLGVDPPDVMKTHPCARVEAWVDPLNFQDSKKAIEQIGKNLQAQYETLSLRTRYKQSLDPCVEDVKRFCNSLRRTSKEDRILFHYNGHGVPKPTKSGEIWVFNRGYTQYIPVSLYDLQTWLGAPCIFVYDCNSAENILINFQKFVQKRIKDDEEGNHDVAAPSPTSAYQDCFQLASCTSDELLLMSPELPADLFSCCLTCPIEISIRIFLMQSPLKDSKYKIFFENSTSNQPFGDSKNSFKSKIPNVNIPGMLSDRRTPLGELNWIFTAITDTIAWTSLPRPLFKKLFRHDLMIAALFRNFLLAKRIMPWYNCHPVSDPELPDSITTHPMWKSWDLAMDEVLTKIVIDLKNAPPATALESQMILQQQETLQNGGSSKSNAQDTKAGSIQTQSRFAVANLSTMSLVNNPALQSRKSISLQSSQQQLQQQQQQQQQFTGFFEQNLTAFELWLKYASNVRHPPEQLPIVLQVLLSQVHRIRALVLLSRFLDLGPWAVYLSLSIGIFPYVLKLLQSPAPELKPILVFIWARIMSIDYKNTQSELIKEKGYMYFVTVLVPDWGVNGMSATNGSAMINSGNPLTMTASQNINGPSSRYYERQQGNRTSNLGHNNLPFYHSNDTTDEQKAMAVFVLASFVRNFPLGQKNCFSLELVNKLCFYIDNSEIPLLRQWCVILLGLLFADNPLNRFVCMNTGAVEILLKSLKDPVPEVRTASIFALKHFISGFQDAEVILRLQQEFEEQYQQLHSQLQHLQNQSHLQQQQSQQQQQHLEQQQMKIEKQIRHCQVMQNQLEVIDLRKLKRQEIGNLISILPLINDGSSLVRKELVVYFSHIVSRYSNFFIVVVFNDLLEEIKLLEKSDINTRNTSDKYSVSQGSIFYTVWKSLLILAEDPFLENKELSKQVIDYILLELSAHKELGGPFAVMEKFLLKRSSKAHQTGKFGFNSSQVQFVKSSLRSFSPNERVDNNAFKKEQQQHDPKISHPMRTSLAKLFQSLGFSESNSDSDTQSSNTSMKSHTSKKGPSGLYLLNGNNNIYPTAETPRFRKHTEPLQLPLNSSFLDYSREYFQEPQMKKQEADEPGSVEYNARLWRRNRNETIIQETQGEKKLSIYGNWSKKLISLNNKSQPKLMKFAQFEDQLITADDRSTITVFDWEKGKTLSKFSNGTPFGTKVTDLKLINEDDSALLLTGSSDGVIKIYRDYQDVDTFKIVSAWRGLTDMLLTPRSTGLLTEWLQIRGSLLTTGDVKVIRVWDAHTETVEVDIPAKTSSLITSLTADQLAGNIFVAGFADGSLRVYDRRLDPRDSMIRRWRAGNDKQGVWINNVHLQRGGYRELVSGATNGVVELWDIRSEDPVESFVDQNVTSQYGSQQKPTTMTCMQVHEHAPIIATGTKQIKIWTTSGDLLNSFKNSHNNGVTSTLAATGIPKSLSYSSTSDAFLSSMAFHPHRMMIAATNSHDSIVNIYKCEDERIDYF
T1 sequence (P41318 whole entry partner): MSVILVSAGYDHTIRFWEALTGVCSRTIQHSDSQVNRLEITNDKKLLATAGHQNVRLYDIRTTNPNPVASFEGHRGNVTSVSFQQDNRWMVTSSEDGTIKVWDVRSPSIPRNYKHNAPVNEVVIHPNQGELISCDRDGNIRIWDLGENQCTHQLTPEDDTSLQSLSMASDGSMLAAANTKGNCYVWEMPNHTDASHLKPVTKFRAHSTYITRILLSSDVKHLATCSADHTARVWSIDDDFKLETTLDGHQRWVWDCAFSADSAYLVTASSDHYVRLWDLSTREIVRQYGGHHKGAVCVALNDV

In general, Ki refers to the dissociation constant of the complex between target and ligand, obtained from inhibition or displacement. Consider `O=C(O)Cc1c[nH]c2ccccc12` [IAA, Indole-3-acetic acid], for which the Ki in data set [1] came to 2400 nM. One may read the Km as the substrate concentration at which the rate is half of its maximum. Turning to “TORC1 (Tor1 kinase subunit) (Saccharomyces cerevisiae S288C)”, the Km in data set [2] came out at 50.5 µM.
